This is an account of results in ChEMBL document CHEMBL1136844, “Discovery of novel small molecule cell type-specific enhancers of NF-kappaB nuclear translocation” (Bioorg Med Chem Lett, 2009).

The target in assay [1] is Transcription factor p65 (Homo sapiens) (UniProt Q04206). The experiment in a line: Potentiation of TNF-alpha-induced NF-kappaB p65 nuclear translocation in HUVEC cells by immunostaining. Format: cell-based.
The target is the same in assay [2]. In words: Induction of NF-kappaB p65 nuclear translocation in HUVEC cells by immunostaining. The class given is cell-based.

Molecules are shown by their SMILES. Activity calls are given as the source filed them. The rule behind the calls is not given here.

Chain of Transcription factor p65 (Homo sapiens) (Q04206 whole entry): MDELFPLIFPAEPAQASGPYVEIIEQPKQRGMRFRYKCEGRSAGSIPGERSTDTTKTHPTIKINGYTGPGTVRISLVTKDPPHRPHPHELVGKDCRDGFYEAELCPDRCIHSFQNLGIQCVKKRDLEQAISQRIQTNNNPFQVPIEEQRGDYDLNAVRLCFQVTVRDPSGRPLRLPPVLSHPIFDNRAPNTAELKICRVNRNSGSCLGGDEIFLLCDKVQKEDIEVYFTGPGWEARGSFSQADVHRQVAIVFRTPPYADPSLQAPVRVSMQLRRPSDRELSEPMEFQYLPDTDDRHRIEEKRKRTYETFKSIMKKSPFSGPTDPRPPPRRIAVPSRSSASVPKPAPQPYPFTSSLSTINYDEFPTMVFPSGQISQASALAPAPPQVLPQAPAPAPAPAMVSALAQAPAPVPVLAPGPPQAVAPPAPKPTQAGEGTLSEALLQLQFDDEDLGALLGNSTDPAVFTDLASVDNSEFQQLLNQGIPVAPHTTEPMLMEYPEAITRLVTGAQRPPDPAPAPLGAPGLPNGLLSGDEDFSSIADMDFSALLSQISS

For the molecule `COc1ccc2nc(-c3cccs3)nc(N3CCOCC3)c2c1`, the outcome in assay [1] and in assay [2] was inactive.

`COc1ccc2nc(-c3cccs3)nc(NCc3ccccc3Cl)c2c1`: the outcome in assay [1] and in assay [2] was inactive.

As for `COc1ccc2nc(-c3cccs3)nc(NCCN3CCOCC3)c2c1`, the outcome in assay [1] and in assay [2] was inactive.

As for `COc1cccc2nc(-c3cccs3)nc(NN3C(=O)CC(C)C3=O)c12` (configuration not stated), the outcome in assay [1] and in assay [2] was inactive.

With `COc1ccc2nc(-c3cccs3)nc(NNS(=O)(=O)c3ccc(C)cc3)c2c1`, the outcome in assay [1] and in assay [2] was inactive.

As to `COc1ccc(CCNc2nc(-c3cccs3)nc3ccc(OC)cc23)cc1`, the result in assay [1] and in assay [2] was inactive.
